# Experiments:
# Assay in all cases: KinomeScan 96-kinase panel
# Type in all cases: binding
# Settings in all cases: compound concentration 1000 nM
# FAK = FAK (Homo sapiens (Human), UniProt Q05397)
# Excerpt: (§1) The details of the screening technology were described in Fabian, M. A. et al, Nat., Biotechnol. 2005, 23, 329 and Karaman, M. W. et al, Nat., Biotechnol. 2008, 26, 127. From the above representative results, it can be seen that the compounds of the present invention have potent inhibitory activities on kinases including ALK, AXL, VEGFR2, PDGFR-α, PDGFR-β, c-KIT, Flt3, MEK1, MEK2, CSF1R, EPHA2, EPHA2, MKNK2, SRC, TIE2 and their mutants. Accordingly, the compounds of the present invention can be used for the treatment of diseases caused by abnormal activities of these kinases, e.g., cancer, psoriasis, hepatic cirrhosis, diabetes, diseases involving angiogenesis, eye diseases, immune system diseases, cardiovascular diseases, and so forth.
# [1] = molecular target: ABL1(E255K)-phosphorylated (Homo sapiens (Human), UniProt P00519, E255K)
# Excerpt: as §1
# BMPR2 = BMPR2 (Homo sapiens (Human), UniProt Q13873)
# Sequence of BMPR2 (Q13873 27-1038): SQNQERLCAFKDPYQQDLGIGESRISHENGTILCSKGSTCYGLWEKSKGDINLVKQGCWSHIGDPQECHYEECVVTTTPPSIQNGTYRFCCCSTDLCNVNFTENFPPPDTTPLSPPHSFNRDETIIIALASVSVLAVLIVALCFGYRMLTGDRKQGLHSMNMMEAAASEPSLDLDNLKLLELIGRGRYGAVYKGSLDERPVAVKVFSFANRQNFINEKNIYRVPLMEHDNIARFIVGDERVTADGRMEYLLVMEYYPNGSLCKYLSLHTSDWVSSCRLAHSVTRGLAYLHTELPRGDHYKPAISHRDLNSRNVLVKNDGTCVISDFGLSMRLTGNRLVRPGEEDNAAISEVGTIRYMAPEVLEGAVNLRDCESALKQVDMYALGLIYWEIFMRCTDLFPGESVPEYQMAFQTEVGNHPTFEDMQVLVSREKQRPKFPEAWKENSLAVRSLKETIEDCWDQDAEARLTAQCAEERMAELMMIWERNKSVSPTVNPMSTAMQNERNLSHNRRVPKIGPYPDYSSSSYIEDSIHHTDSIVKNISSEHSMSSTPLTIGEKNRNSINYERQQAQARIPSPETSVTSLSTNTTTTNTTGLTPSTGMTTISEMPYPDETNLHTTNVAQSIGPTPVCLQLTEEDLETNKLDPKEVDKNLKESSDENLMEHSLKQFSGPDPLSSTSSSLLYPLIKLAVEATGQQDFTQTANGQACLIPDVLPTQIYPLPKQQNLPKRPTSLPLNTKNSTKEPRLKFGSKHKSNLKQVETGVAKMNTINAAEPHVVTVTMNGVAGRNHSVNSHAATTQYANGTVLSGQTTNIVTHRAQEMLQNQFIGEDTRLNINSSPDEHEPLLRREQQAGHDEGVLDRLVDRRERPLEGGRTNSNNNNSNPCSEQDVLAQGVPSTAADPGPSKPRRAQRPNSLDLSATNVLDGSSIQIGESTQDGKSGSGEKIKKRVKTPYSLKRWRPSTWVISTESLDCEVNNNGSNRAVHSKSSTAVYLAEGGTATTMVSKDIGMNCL
# Excerpt: as §1
# ZAP70 = ZAP70 (Homo sapiens (Human), UniProt P43403)
# Excerpt: as §1
# AXL = AXL (Homo sapiens (Human), UniProt P30530)
# Excerpt: as §1
# PDPK1 = PDPK1 (Homo sapiens (Human), UniProt O15530)
# Excerpt: as §1
# ROCK2 = ROCK2 (Homo sapiens (Human), UniProt O75116)
# Sequence of ROCK2 (O75116 whole entry): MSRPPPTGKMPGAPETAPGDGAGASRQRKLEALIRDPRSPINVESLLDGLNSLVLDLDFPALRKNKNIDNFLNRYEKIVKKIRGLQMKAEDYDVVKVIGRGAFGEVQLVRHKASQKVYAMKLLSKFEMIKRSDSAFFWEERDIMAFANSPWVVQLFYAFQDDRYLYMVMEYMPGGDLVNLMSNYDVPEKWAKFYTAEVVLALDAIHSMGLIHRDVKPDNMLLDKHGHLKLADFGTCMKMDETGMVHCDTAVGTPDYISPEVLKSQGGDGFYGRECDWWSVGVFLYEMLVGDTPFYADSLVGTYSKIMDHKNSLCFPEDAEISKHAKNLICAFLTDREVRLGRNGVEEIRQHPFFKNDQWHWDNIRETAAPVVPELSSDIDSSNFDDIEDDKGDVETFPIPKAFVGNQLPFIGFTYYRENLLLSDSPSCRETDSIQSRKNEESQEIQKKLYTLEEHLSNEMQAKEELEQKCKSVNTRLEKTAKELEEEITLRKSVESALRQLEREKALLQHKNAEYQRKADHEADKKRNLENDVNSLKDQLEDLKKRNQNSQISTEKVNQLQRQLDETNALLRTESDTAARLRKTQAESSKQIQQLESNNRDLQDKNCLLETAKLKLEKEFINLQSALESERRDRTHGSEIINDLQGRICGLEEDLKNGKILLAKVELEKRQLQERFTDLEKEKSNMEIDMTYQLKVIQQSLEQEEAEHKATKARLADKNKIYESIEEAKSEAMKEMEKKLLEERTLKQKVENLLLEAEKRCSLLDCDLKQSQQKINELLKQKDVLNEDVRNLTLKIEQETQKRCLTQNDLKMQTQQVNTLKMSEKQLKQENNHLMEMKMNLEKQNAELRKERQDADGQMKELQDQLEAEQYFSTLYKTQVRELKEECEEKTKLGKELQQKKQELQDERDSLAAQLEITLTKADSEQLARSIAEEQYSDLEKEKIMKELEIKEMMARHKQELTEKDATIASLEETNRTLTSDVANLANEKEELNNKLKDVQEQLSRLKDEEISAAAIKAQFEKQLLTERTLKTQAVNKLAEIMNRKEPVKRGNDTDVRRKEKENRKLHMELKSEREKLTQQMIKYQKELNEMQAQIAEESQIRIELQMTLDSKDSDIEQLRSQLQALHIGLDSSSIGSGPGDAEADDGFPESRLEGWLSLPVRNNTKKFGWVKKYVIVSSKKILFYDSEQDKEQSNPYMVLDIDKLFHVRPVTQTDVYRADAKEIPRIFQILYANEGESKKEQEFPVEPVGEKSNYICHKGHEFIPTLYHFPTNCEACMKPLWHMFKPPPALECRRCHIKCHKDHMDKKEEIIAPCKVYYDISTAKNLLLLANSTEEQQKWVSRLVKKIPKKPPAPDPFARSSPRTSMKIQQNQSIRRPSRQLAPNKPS
# Excerpt: as §1
# CDK3 = CDK3 (Homo sapiens (Human), UniProt Q00526)
# Sequence of CDK3 (Q00526 whole entry): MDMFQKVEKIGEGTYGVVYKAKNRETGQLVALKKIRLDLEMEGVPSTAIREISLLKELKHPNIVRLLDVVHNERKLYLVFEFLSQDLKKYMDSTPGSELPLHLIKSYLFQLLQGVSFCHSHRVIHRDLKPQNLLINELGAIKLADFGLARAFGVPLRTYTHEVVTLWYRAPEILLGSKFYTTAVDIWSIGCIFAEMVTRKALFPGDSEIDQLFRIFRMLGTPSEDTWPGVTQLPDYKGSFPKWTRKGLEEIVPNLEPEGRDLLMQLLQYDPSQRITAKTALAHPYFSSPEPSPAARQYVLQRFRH
# Excerpt: as §1
# TRKA = TRKA (Homo sapiens (Human), UniProt P04629)
# Sequence of TRKA (P04629 33-796): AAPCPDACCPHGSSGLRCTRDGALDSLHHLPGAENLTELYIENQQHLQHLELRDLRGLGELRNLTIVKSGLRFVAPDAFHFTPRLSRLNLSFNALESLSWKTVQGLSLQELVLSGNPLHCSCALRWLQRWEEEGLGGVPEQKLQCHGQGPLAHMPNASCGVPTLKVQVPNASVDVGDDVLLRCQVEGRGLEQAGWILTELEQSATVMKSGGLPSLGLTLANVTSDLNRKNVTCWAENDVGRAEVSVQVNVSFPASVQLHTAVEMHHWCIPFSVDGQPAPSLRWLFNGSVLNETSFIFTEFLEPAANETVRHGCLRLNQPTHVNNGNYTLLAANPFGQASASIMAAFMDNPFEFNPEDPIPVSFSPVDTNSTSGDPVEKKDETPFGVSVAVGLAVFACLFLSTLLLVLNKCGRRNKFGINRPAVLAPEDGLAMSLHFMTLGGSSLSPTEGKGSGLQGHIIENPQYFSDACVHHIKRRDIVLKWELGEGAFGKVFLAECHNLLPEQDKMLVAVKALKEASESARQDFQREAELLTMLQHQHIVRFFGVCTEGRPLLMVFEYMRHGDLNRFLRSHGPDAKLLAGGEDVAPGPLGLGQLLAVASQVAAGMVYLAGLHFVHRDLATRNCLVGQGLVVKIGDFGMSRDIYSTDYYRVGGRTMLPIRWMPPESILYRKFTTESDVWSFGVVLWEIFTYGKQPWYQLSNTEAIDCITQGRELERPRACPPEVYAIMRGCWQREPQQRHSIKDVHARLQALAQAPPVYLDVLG
# Excerpt: as §1
# MLK1 = MLK1 (Homo sapiens (Human), UniProt P80192)
# Excerpt: as §1
# KIT (V559D, T670I) = KIT (V559D, T670I) (Homo sapiens (Human), UniProt P10721, T670I/V559D)
# Excerpt: as §1
# KIT = KIT (Homo sapiens (Human), UniProt P10721)
# Excerpt: as §1
# ERBB4 = ERBB4 (Homo sapiens (Human), UniProt Q15303)
# Excerpt: as §1
# PIM2 = PIM2 (Homo sapiens (Human), UniProt Q9P1W9)
# Sequence of PIM2 (Q9P1W9 whole entry): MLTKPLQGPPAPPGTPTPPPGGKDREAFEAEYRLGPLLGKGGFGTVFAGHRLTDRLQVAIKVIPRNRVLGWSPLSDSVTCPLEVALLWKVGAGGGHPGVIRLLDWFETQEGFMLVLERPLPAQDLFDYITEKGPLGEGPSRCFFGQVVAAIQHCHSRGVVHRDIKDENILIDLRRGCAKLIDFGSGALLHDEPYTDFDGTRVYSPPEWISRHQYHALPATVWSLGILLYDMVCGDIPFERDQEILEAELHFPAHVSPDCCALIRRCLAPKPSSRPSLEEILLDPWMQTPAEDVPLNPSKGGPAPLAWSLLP
# Excerpt: as §1
# ACVR1B = ACVR1B (Homo sapiens (Human), UniProt P36896)
# Excerpt: as §1
# MKNK2 = MKNK2 (Homo sapiens (Human), UniProt Q9HBH9)
# Excerpt: as §1
# CSNK1G2 = CSNK1G2 (Homo sapiens (Human), UniProt P78368)
# Sequence of CSNK1G2 (P78368 whole entry): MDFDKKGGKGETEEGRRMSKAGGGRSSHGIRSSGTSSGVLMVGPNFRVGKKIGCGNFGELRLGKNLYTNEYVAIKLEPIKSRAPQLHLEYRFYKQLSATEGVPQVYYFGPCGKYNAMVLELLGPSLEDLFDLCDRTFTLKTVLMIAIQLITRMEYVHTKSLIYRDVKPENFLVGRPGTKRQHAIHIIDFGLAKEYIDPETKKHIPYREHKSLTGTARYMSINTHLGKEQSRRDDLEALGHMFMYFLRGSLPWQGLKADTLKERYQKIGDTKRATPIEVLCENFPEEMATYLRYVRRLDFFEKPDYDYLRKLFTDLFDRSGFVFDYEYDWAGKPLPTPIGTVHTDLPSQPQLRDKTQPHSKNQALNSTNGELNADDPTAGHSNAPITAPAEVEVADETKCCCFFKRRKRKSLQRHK
# Excerpt: as §1
# BTK = BTK (Homo sapiens (Human), UniProt Q06187)
# Excerpt: as §1
# BRAF = BRAF (Homo sapiens (Human), UniProt P15056)
# Excerpt: as §1
# SRPK3 = SRPK3 (Homo sapiens (Human), UniProt Q9UPE1)
# Sequence of SRPK3 (Q9UPE1 whole entry): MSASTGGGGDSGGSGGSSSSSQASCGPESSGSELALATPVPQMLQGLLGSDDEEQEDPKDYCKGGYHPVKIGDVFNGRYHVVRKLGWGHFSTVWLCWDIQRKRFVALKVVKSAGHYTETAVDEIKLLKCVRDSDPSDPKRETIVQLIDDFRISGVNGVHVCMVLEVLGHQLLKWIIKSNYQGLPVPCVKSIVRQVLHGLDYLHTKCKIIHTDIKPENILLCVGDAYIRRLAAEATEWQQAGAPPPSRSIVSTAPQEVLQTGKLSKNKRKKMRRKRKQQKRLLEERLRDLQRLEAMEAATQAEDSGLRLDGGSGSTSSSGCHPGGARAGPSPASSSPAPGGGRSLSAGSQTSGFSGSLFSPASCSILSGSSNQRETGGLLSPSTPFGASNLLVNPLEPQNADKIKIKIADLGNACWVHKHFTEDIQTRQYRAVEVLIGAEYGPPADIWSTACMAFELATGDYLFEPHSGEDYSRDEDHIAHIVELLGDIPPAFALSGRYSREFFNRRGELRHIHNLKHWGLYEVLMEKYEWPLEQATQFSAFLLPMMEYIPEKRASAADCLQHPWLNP
# Excerpt: as §1
# PIM1 = PIM1 (Homo sapiens (Human), UniProt P11309)
# Excerpt: as §1
smiles,measurement,setting,value
"COc1cc2c(Oc3ccc(NC(=O)C4(C(=O)Nc5ccc(F)cc5)CC4)cc3F)ccnc2cc1OCCCCCC(=O)NO [Example 13, N1′-[3-fluoro-4-[[7-[6-(hydroxyamino)-6-oxohexyloxy]-6-methoxy-4-quinolyl]oxy]phenyl]-N1-(4-fluorophenyl)cyclopropane-1,1-dicarboxamide]",% Ctrl@1000 nM,FAK,12 % Ctrl
same,% Ctrl@1000 nM,[1],7.8 % Ctrl
same,% Ctrl@1000 nM,BMPR2,100 % Ctrl
same,% Ctrl@1000 nM,ZAP70,80 % Ctrl
same,% Ctrl@1000 nM,AXL,1.2 % Ctrl
same,% Ctrl@1000 nM,PDPK1,87 % Ctrl
same,% Ctrl@1000 nM,ROCK2,53 % Ctrl
same,% Ctrl@1000 nM,CDK3,100 % Ctrl
same,% Ctrl@1000 nM,TRKA,0.5 % Ctrl
same,% Ctrl@1000 nM,MLK1,32 % Ctrl
same,% Ctrl@1000 nM,"KIT (V559D, T670I)",0.15 % Ctrl
same,% Ctrl@1000 nM,KIT,0 % Ctrl
same,% Ctrl@1000 nM,ERBB4,17 % Ctrl
same,% Ctrl@1000 nM,PIM2,100 % Ctrl
same,% Ctrl@1000 nM,ACVR1B,90 % Ctrl
same,% Ctrl@1000 nM,MKNK2,0.1 % Ctrl
same,% Ctrl@1000 nM,CSNK1G2,99 % Ctrl
same,% Ctrl@1000 nM,BTK,2.6 % Ctrl
same,% Ctrl@1000 nM,BRAF,87 % Ctrl
same,% Ctrl@1000 nM,SRPK3,76 % Ctrl
same,% Ctrl@1000 nM,PIM1,100 % Ctrl
